Test [1] concerns the target Nuclear factor NF-kappa-B complex (Homo sapiens) (UniProt Q00653+P19838+Q04206). As to the kind of experiment: Inhibition of NF-kB (unknown origin). The class given is protein-complex assay.
In test [2] the test system is A549. As to the kind of experiment: Induction of apoptosis in human A549 cells assessed as early apoptotic cells for 24 hrs by FITC-annexin V/PI based flow cytometry. The class given is functional. On the technique in general: Flow cytometry measures light scatter and fluorescence of single cells or particles in a stream.
Test [3] deals with C6. As to the kind of experiment: Induction of apoptosis in rat C6 cells assessed as late apoptotic cells for 24 hrs by FITC-annexin V/PI based flow cytometry. The class given is functional.
Test [4] has as its system A549. As to the kind of experiment: Induction of apoptosis in human A549 cells assessed as late apoptotic cells for 24 hrs by FITC-annexin V/PI based flow cytometry. Format: functional.
In test [5] the test system is C6. As to the kind of experiment: Induction of apoptosis in rat C6 cells assessed as early apoptotic cells for 24 hrs by FITC-annexin V/PI based flow cytometry. The class given is functional.
Test [6] concerns C6. As to the kind of experiment: Inhibition of Akt in rat C6 cells measured after 30 mins by ELISA analysis. Format: cell-based.
Test [7] deals with MDA-MB-231. As to the kind of experiment: Antiproliferative activity against human MDA-MB-231 cells assessed as reduction in cell viability incubated for 2 days by MTT assay. Format: functional, cell-based. The conditions noted are these: MDA-MB-231, 48 h.
The test system of another test is Jurkat. As to the kind of experiment: Antiproliferative activity against human Jurkat cells assessed as reduction in cell viability incubated for 2 days by MTT assay. Format: functional, cell-based. The settings on record: 48 h. In general terms: Formazan colour is commonly taken as a measure of viable cells.
The subject of test [8] is HeLa. As to the kind of experiment: Cytotoxicity against human HeLa cells assessed as reduction in cell viability measured after 48 hrs by MTS assay. Format: functional, cell-based.
The test system of test [9] is K562. As to the kind of experiment: Cytotoxicity against human K562 cells assessed as reduction in cell viability measured after 48 hrs by MTS assay. The class given is functional, cell-based. The conditions noted are these: K562, 48 h.
Test [10] relates to MCF7. As to the kind of experiment: Cytotoxicity against human MCF7 cells. The class given is functional, cell-based.
For the next test, the system named is MG-63. As to the kind of experiment: Cytotoxicity against human MG-63 cells. Format: functional, cell-based.
The test system of test [11] is HeLa. As to the kind of experiment: Cytotoxicity against human HeLa cells. Format: functional, cell-based.
The subject of test [12] is HepG2. As to the kind of experiment: Cytotoxicity against human HepG2 cells assessed as reduction in cell viability measured after 48 hrs by MTS assay. The conditions noted are these: HepG2, 48 h. The class given is functional, cell-based.
The subject of test [13] is K562. As to the kind of experiment: Anticancer activity against human K562 cells. Format: functional, cell-based.
The subject of a further test is PC-3. As to the kind of experiment: Anticancer activity against human PC-3 cells. The class given is functional, cell-based.
In test [14] the test system is HepG2. As to the kind of experiment: Cytotoxicity against human HepG2 cells. Format: functional, cell-based.
The subject of test [15] is HepG2. As to the kind of experiment: Anticancer activity against human HepG2 cells. Format: functional, cell-based.
The subject of the next test is SMMC-7721. As to the kind of experiment: Cytotoxicity against human SMMC-7721 cells. Format: functional, cell-based.
For test [16], the system named is HCT-116. As to the kind of experiment: Anticancer activity against human HCT-116 cells. The class given is functional, cell-based.
In test [17] the test system is HeLa. As to the kind of experiment: Cytotoxicity against human HeLa cells assessed as reduction in cell viability by MTT assay. The class given is functional, cell-based.
For test [18], the system named is MDA-MB-231. As to the kind of experiment: Cytotoxicity against human MDA-MB-231 cells assessed as reduction in cell viability by MTT assay. Format: functional, cell-based.
Test [19] has as its system MCF7. As to the kind of experiment: Cytotoxicity against human MCF7 cells assessed as reduction in cell viability by MTT assay. Format: functional, cell-based.
Test [20] concerns HCT-116. As to the kind of experiment: Cytotoxicity against human HCT-116 cells assessed as reduction in cell viability by MTT assay. Format: functional, cell-based.
A short description of test [21]: Anticancer activity against human PBMC cells. The class given is functional, cell-based.
Test [22] relates to NCI-H460. As to the kind of experiment: Antitumor activity against human NCI-H460 cells. The class given is functional, cell-based.
A further test deals with T47D. As to the kind of experiment: Cytotoxicity against human T47D cells. The class given is functional, cell-based.
Test [23] concerns A549. As to the kind of experiment: Anticancer activity against human A549 cells at 5 microg/ml relative to control. The class given is functional. The conditions noted are these: dose 5 µg/ml.
The next test relates to SF-268. As to the kind of experiment: Cytotoxicity against human SF-268 cells assessed as reduction in cell viability by MTS assay. The class given is functional.
In test [24] the test system is NCI-H460. As to the kind of experiment: Cytotoxicity against human NCI-H460 cells assessed as reduction in cell viability by MTS assay. The class given is functional.
Test [25] relates to MCF7. As to the kind of experiment: Cytotoxicity against human MCF7 cells assessed as reduction in cell viability by MTS assay. Format: functional.
Test [26] is described as follows: Cytotoxicity against human U-87 MG cells. The class given is functional, cell-based, U-87MG ATCC.
A further test concerns HT-29. As to the kind of experiment: Cytotoxicity against human HT-29 cells. The class given is functional, cell-based.
In test [27] the test system is A549. As to the kind of experiment: Antiproliferative activity against human A549 cells. Format: functional, cell-based.
In the next test the test system is MKN-45. As to the kind of experiment: Cytotoxicity against human MKN-45 cells. The class given is functional, cell-based.
The subject of test [28] is NCI-H460. As to the kind of experiment: Cytotoxicity against human NCI-H460 cells. The class given is functional, cell-based.
The nature of test [29]: Antiproliferative activity against human A375P cells. The class given is functional, cell-based.
The subject of the next test is HL-60. As to the kind of experiment: Cytotoxicity against human HL-60 cells. Format: functional, cell-based.
The next test deals with MDA-MB-435. As to the kind of experiment: Cytotoxicity against human MDA-MB-435 cells. Format: functional, cell-based.
For another test, the system named is SF-295. As to the kind of experiment: Cytotoxicity against human SF-295 cells. The class given is functional, cell-based.
The test system of test [30] is HeLa. As to the kind of experiment: Antiproliferative activity against human HeLa cells assessed as reduction in cell growth after 72 hrs. Format: functional, cell-based.
Test [31] concerns Panel NCI-60 (60 carcinoma cell lines). As to the kind of experiment: Antitumor activity against human Panel NCI-60 (60 carcinoma cell lines) cells. The class given is functional.

In brackets after ≈: the same amount, converted by molar mass.

The values below come from ChEMBL document CHEMBL5244229, “Thiazole-containing compounds as therapeutic targets for cancer therapy” (Eur J Med Chem, 2020).

Nuclear factor NF-kappa-B complex (Homo sapiens), sequence (P19838 whole entry, looked up): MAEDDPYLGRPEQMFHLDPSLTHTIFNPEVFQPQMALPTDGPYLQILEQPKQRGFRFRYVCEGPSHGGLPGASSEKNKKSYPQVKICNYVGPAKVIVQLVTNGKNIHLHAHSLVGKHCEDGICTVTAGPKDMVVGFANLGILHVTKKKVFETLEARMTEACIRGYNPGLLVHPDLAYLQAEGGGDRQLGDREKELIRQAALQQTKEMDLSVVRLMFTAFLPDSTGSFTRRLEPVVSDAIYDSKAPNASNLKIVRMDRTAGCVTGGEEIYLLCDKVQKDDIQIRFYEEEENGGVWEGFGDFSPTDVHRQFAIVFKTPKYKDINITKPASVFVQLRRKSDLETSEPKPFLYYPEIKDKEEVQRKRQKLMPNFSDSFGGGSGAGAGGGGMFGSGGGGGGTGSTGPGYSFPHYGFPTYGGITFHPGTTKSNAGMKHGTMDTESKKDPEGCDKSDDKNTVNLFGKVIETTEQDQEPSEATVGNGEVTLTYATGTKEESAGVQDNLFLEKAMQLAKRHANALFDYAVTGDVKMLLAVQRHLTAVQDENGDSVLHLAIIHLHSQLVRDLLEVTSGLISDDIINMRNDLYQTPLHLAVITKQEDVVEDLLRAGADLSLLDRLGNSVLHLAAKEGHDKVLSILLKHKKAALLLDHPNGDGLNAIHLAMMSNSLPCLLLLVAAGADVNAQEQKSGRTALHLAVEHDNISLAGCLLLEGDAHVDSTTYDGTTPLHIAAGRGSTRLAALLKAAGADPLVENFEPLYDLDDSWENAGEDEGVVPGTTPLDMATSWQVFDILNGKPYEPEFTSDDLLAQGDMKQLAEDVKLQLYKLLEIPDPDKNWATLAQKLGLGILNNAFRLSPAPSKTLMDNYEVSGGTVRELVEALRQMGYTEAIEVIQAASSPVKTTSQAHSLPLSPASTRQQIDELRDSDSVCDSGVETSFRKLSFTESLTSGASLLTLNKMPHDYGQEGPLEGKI
Nuclear factor NF-kappa-B complex (Homo sapiens), sequence (Q00653 whole entry, looked up): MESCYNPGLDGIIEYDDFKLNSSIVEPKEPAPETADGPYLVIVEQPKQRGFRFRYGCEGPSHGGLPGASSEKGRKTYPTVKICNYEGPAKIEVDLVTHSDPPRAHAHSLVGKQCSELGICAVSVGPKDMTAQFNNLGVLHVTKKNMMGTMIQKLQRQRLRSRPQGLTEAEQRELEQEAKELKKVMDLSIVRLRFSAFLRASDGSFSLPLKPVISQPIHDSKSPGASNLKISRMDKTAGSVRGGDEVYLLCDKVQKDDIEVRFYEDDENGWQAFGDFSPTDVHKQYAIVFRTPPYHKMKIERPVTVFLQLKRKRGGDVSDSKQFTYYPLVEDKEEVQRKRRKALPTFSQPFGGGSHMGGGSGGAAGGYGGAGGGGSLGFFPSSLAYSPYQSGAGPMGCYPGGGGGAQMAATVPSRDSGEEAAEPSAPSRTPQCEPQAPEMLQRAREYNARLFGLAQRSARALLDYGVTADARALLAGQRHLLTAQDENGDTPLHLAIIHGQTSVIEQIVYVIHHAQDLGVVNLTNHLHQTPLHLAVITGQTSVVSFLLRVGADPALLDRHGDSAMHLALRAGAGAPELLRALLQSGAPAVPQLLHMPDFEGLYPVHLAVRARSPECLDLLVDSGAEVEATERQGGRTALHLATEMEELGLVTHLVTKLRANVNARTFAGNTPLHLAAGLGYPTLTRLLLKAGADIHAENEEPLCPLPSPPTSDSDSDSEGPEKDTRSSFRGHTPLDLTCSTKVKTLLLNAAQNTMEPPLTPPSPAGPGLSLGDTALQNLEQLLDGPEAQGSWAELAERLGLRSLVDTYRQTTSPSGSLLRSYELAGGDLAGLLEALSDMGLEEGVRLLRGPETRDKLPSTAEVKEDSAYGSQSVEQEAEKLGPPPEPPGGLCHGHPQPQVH
Nuclear factor NF-kappa-B complex (Homo sapiens), sequence (Q04206 whole entry, looked up): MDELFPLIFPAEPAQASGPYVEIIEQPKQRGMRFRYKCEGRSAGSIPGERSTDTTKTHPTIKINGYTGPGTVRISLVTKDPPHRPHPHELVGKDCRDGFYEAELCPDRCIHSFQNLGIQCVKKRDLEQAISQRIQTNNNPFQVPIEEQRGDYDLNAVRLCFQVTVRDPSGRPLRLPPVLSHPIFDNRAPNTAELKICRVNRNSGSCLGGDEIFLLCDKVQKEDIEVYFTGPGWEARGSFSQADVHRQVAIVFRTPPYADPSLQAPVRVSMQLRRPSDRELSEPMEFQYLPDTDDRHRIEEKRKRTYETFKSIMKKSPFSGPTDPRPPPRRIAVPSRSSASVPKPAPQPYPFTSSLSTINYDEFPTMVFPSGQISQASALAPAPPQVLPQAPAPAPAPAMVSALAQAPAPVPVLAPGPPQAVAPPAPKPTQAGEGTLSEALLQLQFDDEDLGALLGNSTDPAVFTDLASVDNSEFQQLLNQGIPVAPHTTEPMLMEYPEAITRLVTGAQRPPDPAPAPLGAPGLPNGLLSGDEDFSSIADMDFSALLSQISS

On to `CNc1nc(C)c(-c2nc3ccccc3c(=O)n2-c2ccc(Cl)cc2)s1`, for which, in test [1], the IC was determined as 3.3 µM.
Turning to `N#Cc1ccc(Oc2ccc(/C=N/Nc3nc(-c4ccc(C#N)cc4)cs3)cc2)cc1`, the Activity in the test with A549 [2] stood at 2.3%; in the test with C6 [3], 28.2%; with A549 [4] it was 36.5%; in the test with C6 [5] it was 4.6%. Moreover, the inhibition in the test with C6 [6] was found to be 71.7%.
As for `CCC[C@H](NS(=O)(=O)c1ccc(C)cc1)[C@]1(c2ccccc2Cl)N=C(SCC)SC1=O`, the IC50 with MDA-MB-231 [7] amounted to 38000 nM; in the test on Jurkat, 17000 nM.
Regarding `Cc1cccc(N(c2cccc(Cl)c2)c2c3ccccc3nc3scnc23)c1`, the IC50 in the test with HeLa [8] and in the test on K562 [9] was 5690 nM throughout.
As to `CC(=O)Nc1nc2ccc(NC(=O)Cc3c[nH]c4ccccc34)cc2s1`, the IC50 in the test with MCF7 [10], in the test on MG-63 and in the test on HeLa [11] was 48000 nM each time.
Take `COc1cccc2c1C(=O)c1c(O)c3c(c(O)c1C2=O)C[C@@](O)(C(=O)CO)C[C@@H]3O[C@H]1C[C@H](N)[C@H](O)[C@H](C)O1` [DOXORUBICIN]: the IC50 in the test on HepG2 [12] turned out to be 720 nM; in the test on K562 [13], 2300 nM; with PC-3 it was 912 nM; in the test with HepG2 [15], 11600 nM; with SMMC-7721, 230 nM; in the test with HCT-116 [16], 180 nM. The 50% cytotoxic concentration (CC50) in the test on HepG2 [14] was 200 nM.
For the molecule `Nc1ccccc1C(=O)Nn1c(-c2ccc(Cl)cc2)cs/c1=N/c1ccc([N+](=O)[O-])cc1`, the half-inhibitory concentration (IC50) in the test with HeLa [17], with MDA-MB-231 [18], in the test on MCF7 [19] and in the test with HCT-116 [20] was 5370 nM throughout.
In the case of `C/C(=N\Nc1nc(-c2ccc(Cl)cc2)cs1)c1ccccn1`, the half-inhibitory concentration (IC50) in test [21] is > 30000 nM.
Regarding `CCn1c(=O)/c(=C2\Sc3ccccc3N2C)s/c1=C\c1cccc[n+]1CC`, the IC50 in the test with NCI-H460 [22] stood at 1300 nM.
In the test on T47D, `Cc1ccc(Oc2ccc(-c3csc(N)n3)cc2)cc1` had a half-inhibitory concentration (IC50) of 540 nM.
The molecule `Cc1cc(Cl)cc(C(=O)NC2CCCCC2)c1NC(=O)c1sc(-c2ccccc2Cl)nc1C(F)(F)F` came in with an Activity in the test on A549 [23] of 48%.
For `C/C(=N\N=c1/scc(-c2ccc(Cl)cc2)n1-c1ccccc1)C1CC[C@@]2(C)[C@]3(C)CC=C4C[C@@H](O)CC[C@]4(C)[C@@]3(C)CC[C@]12C` (stereo partly specified), the 50% growth inhibitory concentration (GI50) was found to be 800 nM in the test on SF-268, 200 nM in the test with NCI-H460 [24] and 200 nM in the test with MCF7 [25].
For the molecule `CC(=O)Nc1nc2ccc(NS(=O)(=O)c3ccc(C4CCCCC4)cc3)cc2s1`, the IC50 in the test with MCF7 [10] is 36000 nM; with MG-63, 34000 nM; with HeLa [11] it was 44000 nM.
For the molecule `CCOC(=O)/C(C(C)=O)=C1/SC=C(n2c(CC#N)nc3ccccc32)N1c1ccccc1`, the half-inhibitory concentration (IC50) (in [26]; in the test with HT-29; in the test on A549 [27]; in the test on MKN-45; in the test with SMMC-7721; with NCI-H460 [28]) was 230 nM each time.
Regarding `O=S1(=O)NCCN1CCNc1nccc(-c2c(-c3ccc(F)cc3)nc3sccn23)n1`, in test [29], half-maximal inhibition (IC50) was put at 1900 nM.
Consider `Clc1cccc(Nc2c3ccccc3nc3sc(NCCN4CCCCC4)nc23)c1`, for which the IC50 in the test on HeLa [8] and in the test on K562 [9] was 5690 nM throughout.
For `O=c1[nH]cc(F)c(=O)[nH]1` [FLUOROURACIL], the 50% inhibitory concentration (IC50) in the test with MCF7 [10] came out at 5.5 µg/mL. The molecule further returned an Activity in the test on A549 [23] of 57%.
Turning to `Clc1ccc(-c2csc(N/N=C/c3ccccn3)n2)cc1`, the IC50 in test [21] is > 30000 nM.
As to `O=c1c2c[nH]c3ccc(Br)cc3c-2nn1-c1nc2ccccc2s1`, the IC50 in the test on HL-60, with MDA-MB-435 and in the test on SF-295 was < 5 µg/mL throughout.
For `COc1ccc(/C=N/Nc2nc(-c3ccccc3)cs2)cc1`, in the test with HeLa [30], the IC50 is 11.1 µg/mL (≈ 35.9 µM).
In [31], `Cn1c(-c2csc(-c3c[nH]c4ncccc34)n2)cc2cc(Br)cnc21` came in with a concentration for 50% growth inhibition (GI50) of 810 nM.

The inhibition is the change of the read-out against control, counted positive when it falls. The low end stands for a response near the control, the high end for a response far below the control. A word on the IC50: it is the concentration needed to halve the response being measured. The CC50 is the concentration that lowers cell viability or growth by half. Higher therefore signals lower toxicity to the cells. Usually GI50 stands for the concentration giving 50% growth inhibition.
